In patent US8618162B2 (priority 2007, dated 2013):
Like-named read-outs stand apart in the source and are kept apart here.

How the values were obtained:
[1] = target: T1, hAChE (Homo sapiens, UniProt P22303); assay: Ellman AChE inhibition assay, recombinant hAChE; assay type: biochemical
T1 construct: purchased Sigma C1682

[2] = target: T2, Ag hmg AChE (Anopheles gambiae, UniProt Q869C3); assay: Ellman AChE inhibition assay, Anopheles gambiae homogenate (Ag hmg); assay type: biochemical; settings: for IC50: pH 7.8, 10 min preincubation; for IC50 ratio (hAChE/Ag hmg): selectivity, values in parenthesis
T2 construct: To prepare the Ag homogenate (Ag hmg) 10 Anopheles gambiae mosquitoes were combined; from tissue; host or cells: whole Anopheles gambiae mosquitoes, crude homogenate supernatant

[3] = target: T3, Ag ace-1S (Anopheles gambiae, UniProt Q869C3); assay: biochemical
T3 construct: encoding the entire wild type AgAChE protein (ace1, 737 amino acids); made in house; host or cells: Drosophila S2 cells (stably transfected, pMT/V5-His vector), clarified cell lysate

[4] = test system: Ag ace-1S; assay: biochemical; set-up: species or system Anopheles gambiae; settings: selectivity, values in parenthesis
[5] = test system: Anopheles gambiae; assay: Live mosquito contact toxicity, WHO filter paper assay; assay type: in vivo; settings: for Live Mosquito Contact Toxicity MC for 100% lethality at 24 hr: 1 hr exposure to treated filter paper
[6] = target: T4, Md hmg AChE (Musca domestica, UniProt Q7YWJ9)
T4 construct: Comparison of Ag homogenate and Md head; host or cells: housefly head homogenate

[7] = target: T5, bovine AChE (Bos taurus, UniProt P23795); settings: read-out: potency at bovine AChE; Kohn 1965; cited from earlier work
T5 sequence (P23795 31-613): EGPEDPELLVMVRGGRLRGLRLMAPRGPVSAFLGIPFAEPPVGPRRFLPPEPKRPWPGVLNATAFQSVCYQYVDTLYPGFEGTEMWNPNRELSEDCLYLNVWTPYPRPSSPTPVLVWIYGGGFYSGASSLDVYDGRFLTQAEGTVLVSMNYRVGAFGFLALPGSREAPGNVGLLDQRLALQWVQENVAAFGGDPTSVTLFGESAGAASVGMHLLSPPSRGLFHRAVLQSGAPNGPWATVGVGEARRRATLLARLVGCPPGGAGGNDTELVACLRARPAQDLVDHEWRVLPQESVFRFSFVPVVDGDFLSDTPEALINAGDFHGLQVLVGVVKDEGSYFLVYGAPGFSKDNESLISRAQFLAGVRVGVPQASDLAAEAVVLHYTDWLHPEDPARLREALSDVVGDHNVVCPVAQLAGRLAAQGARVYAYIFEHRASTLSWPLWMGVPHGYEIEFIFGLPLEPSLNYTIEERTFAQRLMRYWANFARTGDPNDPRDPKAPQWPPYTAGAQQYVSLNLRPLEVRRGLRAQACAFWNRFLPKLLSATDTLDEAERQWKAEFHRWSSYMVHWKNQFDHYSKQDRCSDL

[8] = Ag WT hmg IC50, WT Anopheles gambiae homogenate
[9] = read-out: Md WT hmg IC50; Musca domestica head homogenate; data from Metcalf / Kolbezen; cited from earlier work
[10] = WT Anopheles gambiae homogenate, read-out: Ag WT hmg IC50
[11] = Musca domestica head homogenate; data from Metcalf / Kolbezen; read-out: Md WT hmg IC50; cited from earlier work

T1 sequence (P22303 32-614): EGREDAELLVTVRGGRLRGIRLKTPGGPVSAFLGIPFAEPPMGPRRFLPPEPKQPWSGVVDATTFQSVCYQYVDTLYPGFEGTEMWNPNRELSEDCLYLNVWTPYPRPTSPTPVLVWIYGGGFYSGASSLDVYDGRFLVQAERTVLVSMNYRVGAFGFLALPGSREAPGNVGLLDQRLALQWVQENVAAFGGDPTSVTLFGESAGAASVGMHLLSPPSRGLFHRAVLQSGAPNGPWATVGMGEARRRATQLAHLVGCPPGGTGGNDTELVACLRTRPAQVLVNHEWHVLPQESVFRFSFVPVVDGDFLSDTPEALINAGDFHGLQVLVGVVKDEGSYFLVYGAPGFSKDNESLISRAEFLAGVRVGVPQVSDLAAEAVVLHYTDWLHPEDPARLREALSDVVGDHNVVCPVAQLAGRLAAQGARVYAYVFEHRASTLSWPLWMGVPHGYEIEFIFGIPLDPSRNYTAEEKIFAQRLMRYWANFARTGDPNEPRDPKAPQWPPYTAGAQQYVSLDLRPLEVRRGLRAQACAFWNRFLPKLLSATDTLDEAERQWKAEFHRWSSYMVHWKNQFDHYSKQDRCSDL
T2 sequence (Q869C3 39-737): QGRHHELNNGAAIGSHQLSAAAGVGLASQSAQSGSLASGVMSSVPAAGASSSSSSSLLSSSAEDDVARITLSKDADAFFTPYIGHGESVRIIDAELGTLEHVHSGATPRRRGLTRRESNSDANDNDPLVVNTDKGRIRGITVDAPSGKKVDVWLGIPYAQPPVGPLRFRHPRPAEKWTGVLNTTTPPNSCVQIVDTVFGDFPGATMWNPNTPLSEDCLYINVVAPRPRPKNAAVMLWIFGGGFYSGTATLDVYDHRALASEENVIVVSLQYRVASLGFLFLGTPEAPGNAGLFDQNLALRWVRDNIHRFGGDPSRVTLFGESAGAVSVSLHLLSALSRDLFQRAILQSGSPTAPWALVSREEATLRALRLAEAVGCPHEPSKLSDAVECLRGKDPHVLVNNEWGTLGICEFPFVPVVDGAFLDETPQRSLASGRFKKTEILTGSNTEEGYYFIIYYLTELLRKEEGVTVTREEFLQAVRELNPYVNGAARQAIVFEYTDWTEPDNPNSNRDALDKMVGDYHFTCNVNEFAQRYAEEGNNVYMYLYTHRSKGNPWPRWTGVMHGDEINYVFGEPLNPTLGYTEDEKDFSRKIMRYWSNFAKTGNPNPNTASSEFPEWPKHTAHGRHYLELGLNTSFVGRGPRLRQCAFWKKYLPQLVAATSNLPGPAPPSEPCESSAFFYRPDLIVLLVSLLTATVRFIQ
T3 sequence (Q869C3 39-737): as above
T4 sequence (Q7YWJ9 1-692): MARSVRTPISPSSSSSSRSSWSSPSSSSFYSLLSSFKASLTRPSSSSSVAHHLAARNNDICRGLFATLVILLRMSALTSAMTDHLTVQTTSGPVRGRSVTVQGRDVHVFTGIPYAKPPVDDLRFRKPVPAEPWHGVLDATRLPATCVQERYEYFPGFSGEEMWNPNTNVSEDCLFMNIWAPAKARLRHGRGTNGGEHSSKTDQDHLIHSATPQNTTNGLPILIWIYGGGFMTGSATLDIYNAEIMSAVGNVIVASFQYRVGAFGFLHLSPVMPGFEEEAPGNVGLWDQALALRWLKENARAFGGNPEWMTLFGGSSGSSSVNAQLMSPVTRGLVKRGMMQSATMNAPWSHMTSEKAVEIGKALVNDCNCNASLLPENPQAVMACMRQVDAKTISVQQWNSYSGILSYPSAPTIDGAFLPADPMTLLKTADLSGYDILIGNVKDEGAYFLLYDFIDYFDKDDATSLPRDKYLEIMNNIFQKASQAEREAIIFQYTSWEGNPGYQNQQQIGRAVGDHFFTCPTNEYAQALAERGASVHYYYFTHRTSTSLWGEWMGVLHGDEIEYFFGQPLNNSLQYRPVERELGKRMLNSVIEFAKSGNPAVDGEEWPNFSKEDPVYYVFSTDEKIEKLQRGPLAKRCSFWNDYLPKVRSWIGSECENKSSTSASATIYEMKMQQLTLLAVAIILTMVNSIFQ

CNC(=O)Oc1cccc(Br)c1 [Compound 8a]
IC50 [1]: > 100 µM
IC50 [2, 8]: 24 µM
IC50 ratio (hAChE/Ag hmg) [2]: (>4.2x)
IC50 [3]: 7.61 µM
IC50 ratio (hAChE/Ag ace-1S) [4]: (>13x)
Live Mosquito Contact Toxicity MC for 100% lethality at 24 hr [5]: 11 ug/cm^2
IC50 [6, 9]: 13 µM

CNC(=O)Oc1ccccc1OC(C)C [Propoxur, reference compound]
IC50 [1]: 0.444 µM
IC50 [2, 8]: 0.371 µM
IC50 ratio (hAChE/Ag hmg) [2]: (1.2x)
IC50 [3]: 0.213 µM
IC50 ratio (hAChE/Ag ace-1S) [4]: (2.1x)
Live Mosquito Contact Toxicity MC for 100% lethality at 24 hr [5]: 1.1 ug/cm^2
IC50 [6, 9]: 0.67 µM

CNC(=O)Oc1cccc(Cl)c1 [Compound 7a]
IC50 [1]: 86 µM
IC50 [2, 8]: 26 µM
IC50 ratio (hAChE/Ag hmg) [2]: (3.3x)
IC50 [3]: 16.6 µM
IC50 ratio (hAChE/Ag ace-1S) [4]: (5.2x)
Live Mosquito Contact Toxicity MC for 100% lethality at 24 hr [5]: 56 ug/cm^2
IC50 [6, 9]: 50 µM

CNC(=O)O/N=C/C(C)(C)SC [Aldicarb, reference compound]
IC50 [2, 10]: 4.62 µM
IC50 [3]: 10.9 µM
Live Mosquito Contact Toxicity MC for 100% lethality at 24 hr [5]: 0.55 ug/cm^2
IC50 [6, 11]: 84 µM

CNC(=O)Oc1cccc(C(C)C)c1 [Compound 4a]
IC50 [2, 8]: 0.027 µM
IC50 [3]: 0.012 µM
IC50 [6, 9]: 0.34 µM

CNC(=O)Oc1cccc(C(C)(C)C)c1 [Compound 1a, 3-tert-butylphenyl-N-methyl carbamate]
IC50 [1]: 0.265 µM
Live Mosquito Contact Toxicity MC for 100% lethality at 24 hr [5]: 1.1 ug/cm^2
Live Mosquito Contact Toxicity MC for 100% lethality at 24 hr, with synergist ([5]; 1 hr exposure, piperonyl butoxide 0.3 mg/mL): 0.28 ug/cm^2
IC50 [6, 9]: 0.4 µM
IC50 [7]: 0.53 µM

CCc1cccc(OC(=O)NC)c1 [Compound 5a]
IC50 [1]: 2.5 µM
IC50 [2, 8]: 0.63 µM
IC50 ratio (hAChE/Ag hmg) [2]: (4.0) x
IC50 [3]: 0.392 µM
IC50 ratio (hAChE/Ag ace-1S) [4]: (6.4x)
Live Mosquito Contact Toxicity MC for 100% lethality at 24 hr [5]: 11 ug/cm^2
IC50 [6, 9]: 13 µM

CNC(=O)Oc1ccccc1C(C)(C)C [Compound 23b, 2-tert-butylphenyl methylcarbamate]
IC50 [1]: > 100 µM
IC50 [2, 8]: 79 µM
IC50 ratio (hAChE/Ag hmg) [2]: (>1.3x)
IC50 [3]: 51.7 µM
IC50 ratio (hAChE/Ag ace-1S) [4]: (1.9x)
Live Mosquito Contact Toxicity MC for 100% lethality at 24 hr [5]: 56 ug/cm^2

CNC(=O)Oc1cc(C(C)(C)C)cc(C(C)(C)C)c1 [Compound 11a]
IC50 [1]: 5.17 µM
IC50 [2, 8]: 5.32 µM
IC50 ratio (hAChE/Ag hmg) [2]: (1.0x)
IC50 [3]: 2.47 µM
IC50 ratio (hAChE/Ag ace-1S) [4]: (2.1x)
lethality at 24 h ([5]; at 11 ug/cm^2, 1 hr exposure): None at 11
IC50 [6, 9]: 0.078 µM

CNC(=O)Oc1cc(C)cc(C)c1 [Compound 10a]
IC50 [1]: 17.4 µM
IC50 [2, 8]: 2.78 µM
IC50 ratio (hAChE/Ag hmg) [2]: (6.2x)
IC50 [3]: 1.04 µM
IC50 ratio (hAChE/Ag ace-1S) [4]: (17x)
Live Mosquito Contact Toxicity MC for 100% lethality at 24 hr [5]: 56 ug/cm^2
IC50 [6, 9]: 6 µM

CNC(=O)Oc1cccc2ccccc12 [Carbaryl, reference compound]
IC50 ([1]; pH 7.8, 10 min preincubation, read-out: hAChE recomb. IC50): 2.84 µM
IC50 [2, 10]: 0.262 µM
IC50 [3]: 0.515 µM
IC50 [6, 11]: 0.9 µM

CNC(=O)Oc1cccc([Si](C)(C)C)c1 [Compound 2a, N-methyl 3-(trimethylsilyl)phenyl carbamate]
IC50 [1]: 0.532 µM
IC50 [2, 8]: 0.0056 µM
difference in potency Ag hmg AChE vs Md hmg AChE ([2]; more potent at Ag hmg AChE): 100 fold
IC50 ratio (hAChE/Ag hmg) [2]: (95x)
IC50 [3]: 0.0041 µM
IC50 ratio (hAChE/Ag ace-1S) [4]: (130x)
Live Mosquito Contact Toxicity MC for 100% lethality at 24 hr [5]: 5.6 ug/cm^2
IC50 [6, 9]: 0.7 µM

CNC(=O)Oc1cccc(I)c1 [Compound 9a]
IC50 [1]: 67.2 µM
IC50 [2, 8]: 5.17 µM
IC50 ratio (hAChE/Ag hmg) [2]: (13x)
IC50 [3]: 1.82 µM
IC50 ratio (hAChE/Ag ace-1S) [4]: (37x)
Live Mosquito Contact Toxicity MC for 100% lethality at 24 hr [5]: 11 ug/cm^2
IC50 [6, 9]: 7 µM
